# pEC50, pIC50: −log10 of the molar value.
# Tests used:
# HDAC10 = target: T1, HDAC10 (Homo sapiens, UniProt Q969S8); assay: In vitro deacetylation assay, HDAC10 (fluorescein-labeled N8-acetylspermidine, RP-HPLC); format: biochemical; details: for pIC50: purified human HDAC10, read-out: IC50 HDAC10; for SI (HD6/HD10): ratio of IC50 HDAC10 divided by IC50 HDAC6
# T1 construct: HDAC10 1 – 667 Open Biosystems; Strep-FLAG-HALO (N); made in house; host or cells: HEK293/T17
# T1 sequence (Q969S8 1-667): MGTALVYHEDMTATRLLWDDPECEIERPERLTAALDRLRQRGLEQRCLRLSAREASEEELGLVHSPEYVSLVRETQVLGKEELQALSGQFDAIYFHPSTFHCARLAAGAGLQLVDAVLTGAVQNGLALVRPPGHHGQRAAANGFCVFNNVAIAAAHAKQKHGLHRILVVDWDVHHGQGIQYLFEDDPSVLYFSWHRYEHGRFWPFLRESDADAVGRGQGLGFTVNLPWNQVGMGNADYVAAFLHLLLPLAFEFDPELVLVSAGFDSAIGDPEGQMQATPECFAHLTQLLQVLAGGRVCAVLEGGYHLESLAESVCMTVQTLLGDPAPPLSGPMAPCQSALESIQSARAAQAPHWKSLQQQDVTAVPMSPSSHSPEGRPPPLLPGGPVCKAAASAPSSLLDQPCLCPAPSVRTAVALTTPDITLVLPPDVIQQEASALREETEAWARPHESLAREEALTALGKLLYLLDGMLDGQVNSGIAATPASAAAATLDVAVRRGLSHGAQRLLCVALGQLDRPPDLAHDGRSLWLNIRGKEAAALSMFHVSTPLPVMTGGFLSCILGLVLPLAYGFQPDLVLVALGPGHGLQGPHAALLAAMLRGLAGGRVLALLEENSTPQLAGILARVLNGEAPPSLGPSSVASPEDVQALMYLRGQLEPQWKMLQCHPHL
# HDAC6-nanoLuc = target: T2, HDAC6-nanoLuc (Homo sapiens, UniProt Q9UBN7); assay: nanoBRET target engagement assay, HDAC6; format: cell-based; details: HEK293T/17 cells stably expressing HDAC6-nanoLuc, 2 h
# T2 sequence (Q9UBN7 1-1215): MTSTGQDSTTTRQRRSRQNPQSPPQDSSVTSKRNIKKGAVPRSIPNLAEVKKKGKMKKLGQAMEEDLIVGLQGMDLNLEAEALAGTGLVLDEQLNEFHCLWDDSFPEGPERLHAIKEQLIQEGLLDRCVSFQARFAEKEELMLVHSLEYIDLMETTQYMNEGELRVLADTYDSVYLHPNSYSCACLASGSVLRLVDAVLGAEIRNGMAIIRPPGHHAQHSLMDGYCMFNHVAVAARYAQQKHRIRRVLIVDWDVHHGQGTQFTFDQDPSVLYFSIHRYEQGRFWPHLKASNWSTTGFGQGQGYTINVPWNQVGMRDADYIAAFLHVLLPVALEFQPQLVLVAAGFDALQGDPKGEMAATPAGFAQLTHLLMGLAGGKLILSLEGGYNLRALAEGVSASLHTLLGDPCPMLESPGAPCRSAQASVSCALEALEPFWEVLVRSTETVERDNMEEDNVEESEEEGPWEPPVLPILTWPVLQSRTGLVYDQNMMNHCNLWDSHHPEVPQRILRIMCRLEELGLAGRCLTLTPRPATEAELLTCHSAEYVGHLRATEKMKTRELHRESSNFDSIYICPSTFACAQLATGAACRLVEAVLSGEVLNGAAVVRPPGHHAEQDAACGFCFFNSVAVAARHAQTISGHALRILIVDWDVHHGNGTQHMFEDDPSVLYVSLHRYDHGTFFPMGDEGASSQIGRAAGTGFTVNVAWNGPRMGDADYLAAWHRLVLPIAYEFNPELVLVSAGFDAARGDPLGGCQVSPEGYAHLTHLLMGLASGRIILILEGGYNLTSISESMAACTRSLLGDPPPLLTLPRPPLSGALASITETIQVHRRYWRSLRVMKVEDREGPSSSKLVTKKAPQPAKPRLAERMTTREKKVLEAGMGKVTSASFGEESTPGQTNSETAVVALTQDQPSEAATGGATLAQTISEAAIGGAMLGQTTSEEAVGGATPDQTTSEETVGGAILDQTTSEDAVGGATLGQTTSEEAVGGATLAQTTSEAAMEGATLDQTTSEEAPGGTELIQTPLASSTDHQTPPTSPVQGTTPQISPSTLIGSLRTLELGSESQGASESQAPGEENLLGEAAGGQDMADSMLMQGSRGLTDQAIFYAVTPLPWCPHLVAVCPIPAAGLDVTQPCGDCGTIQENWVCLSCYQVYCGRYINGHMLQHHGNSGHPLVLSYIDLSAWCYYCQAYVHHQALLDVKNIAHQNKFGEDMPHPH
# HDAC1-nanoLuc = HDAC1-nanoLuc (Homo sapiens, UniProt Q13547); assay: nanoBRET target engagement assay, HDAC1; format: cell-based; details: HEK293T/17 cells stably expressing HDAC1-nanoLuc, 2 h
# Chain of HDAC1-nanoLuc (Q13547 whole entry): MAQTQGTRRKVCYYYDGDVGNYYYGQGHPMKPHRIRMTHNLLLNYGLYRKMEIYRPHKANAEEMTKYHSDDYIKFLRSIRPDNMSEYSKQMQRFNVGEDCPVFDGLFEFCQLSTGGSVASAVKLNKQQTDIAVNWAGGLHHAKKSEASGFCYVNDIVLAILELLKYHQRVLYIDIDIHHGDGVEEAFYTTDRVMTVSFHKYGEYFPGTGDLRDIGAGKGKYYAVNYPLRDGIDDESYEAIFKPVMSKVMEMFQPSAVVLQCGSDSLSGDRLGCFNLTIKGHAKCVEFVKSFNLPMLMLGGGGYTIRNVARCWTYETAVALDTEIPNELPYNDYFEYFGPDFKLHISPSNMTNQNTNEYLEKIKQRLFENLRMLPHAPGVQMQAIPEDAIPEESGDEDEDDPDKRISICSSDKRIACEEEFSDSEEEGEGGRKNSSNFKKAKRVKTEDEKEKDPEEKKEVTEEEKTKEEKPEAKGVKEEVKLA
# tubulin acetylation = assay: Tubulin acetylation in RPMI-8226 cells by quantitative Western blotting; format: cell-based; details: Homo sapiens, RPMI-8226, 6 h; read-out: IC50 tubulin deacetylation (relative tubulin acetylation)
# MTT viability assay = format: cell-based; details: human, RPMI-8226 lymphoblasts, RPMI-8226 cells, read-out: EC50 cytotoxicity (MTT viability)
# Description: RPMI-8226 lymphoblasts (ATTC #CCL-155) were used to assess the cytotoxicity of tested compounds. […] Dilution series of tested inhibitors were prepared as 10x stock solutions in PBS and 10 μL was added to cells and incubated under a 5% CO2 atmosphere at 37 °C, for 2 days. Following incubation, 10 μL of MTT reagent (3-(4,5-dimethylthiazol-2-yl)-2,5-diphenyltetrazolium bromide, 5 mg/mL in PBS, Sigma Aldrich) was added to each well and incubated for 90 min, 37 °C, 5% CO2. […]
pIC50 (HDAC10),SI (HD6/HD10) (HDAC10),pEC50 (HDAC6-nanoLuc),pEC50 (HDAC1-nanoLuc),pIC50 (tubulin acetylation),Structure (SMILES),EC50 at 48 h (MTT viability assay)
< 4.30,">25,000",6.80,< 4.30,6.21,"CS(=O)(=O)N(Cc1ccc(-c2nnc(C(F)F)o2)cn1)c1cccc(Cl)c1 [compound 7, N-(3-chlorophenyl)-N-((5-(5-(difluoromethyl)-1,3,4-oxadiazol-2-yl)pyridin-2-yl)methyl)methanesulfonamide]",> 50 µM
7.47,30.6,6.57,< 4.30,6.37,O=C(NO)c1cnc(NC2(c3cccc(F)c3)CCCCC2)nc1 [ACY-775],8.6 µM

# Source: paper PMC10003107, “Selectivity of Hydroxamate- and Difluoromethyloxadiazole-Based Inhibitors of Histone Deacetylase 6 In Vitro and in Cells” (International Journal of Molecular Sciences, 2023)
